assay: recombinant barcode read abundance after kanamycin selection (control-corrected) (log10(CPM+1)); higher = more efficient recombination; sequences stand for … in AGTGCAGAGAAAATCGGCCAGTTTTCTCTGCCTGCAGTCCGCATGCCGT…AGATTTATGCAGCGGACTGCCTTTCTCCCAAAGTGATAAACCGGACAGTATCATGGACCGGTTTTCCCGGTAATCCGTATTTGCAAGGTTGGTTTCACT; site = the 11-nt target
Procedure, shortened: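 Duplicate cultures were plated either on chloramphenicol/ampicillin LB agar, serving as control, or on chloramphenicol/ampicillin/kanamycin with 0.1 mM IPTG. These came from a pooled E. coli library co-electroporated with a donor plasmid, each member pairing a target with an IS621 bridge RNA target-binding loop. Recombination efficiency equals averaged, control-corrected counts per million of recombinant-junction barcodes. It is listed as log10(CPM+1).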
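Further: IS621 recombinase and bridge RNA in Escherichia coli cells.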

| Sequence | recombinant barcode read abundance (log10) |
| --- | --- |
| TAATTTGCTTGGGTTCTAACCTGTTGCCT (site TAATTTGCTAG) | 0.182 |
| TACAAGCCTTGGGTTCTAACCTGTTGCGG (site TACAAGCCTCC) | 1.91 |
| TACAAGCCTTGGGTTCTAACCTGTTGCGG (site TACAAGTCTCT) | 0.051 |
| TACAAGTCTTGGGTTCTAACCTGTTGCAG (site TACAAGCCTCC) | 0.11 |
| TACAAGTCTTGGGTTCTAACCTGTTGCAG (site TACAAGTCTCT) | 1.47 |
| TACACTACTTGGGTTCTAACCTGTTGCAT (site TACACTACTAT) | 0.131 |
| TACACTACTTGGGTTCTAACCTGTTGCAT (site TACCCTACTAT) | 0.134 |
| TACAGACCTTGGGTTCTAACCTGTTGCAG (site ACGGAGTCTTA) | 0.128 |
| TACAGACCTTGGGTTCTAACCTGTTGCAG (site TACAGACCTCT) | 1.28 |
| TACAGTCCTTGGGTTCTAACCTGTTGCCT (site TACAGTCCTAG) | 1.06 |
| TACAGTCCTTGGGTTCTAACCTGTTGCCT (site TGCACTCCTAG) | 0.276 |
| TACCACTCTTGGGTTCTAACCTGTTGCCT (site AACCACTCTAG) | 0.335 |
| TACCACTCTTGGGTTCTAACCTGTTGCCT (site CACCACTCTAG) | 0.887 |
| TACCACTCTTGGGTTCTAACCTGTTGCCT (site GACCACTCTAG) | 0.13 |
| TACCACTCTTGGGTTCTAACCTGTTGCCT (site TACCACTCTAG) | 2.24 |
| TACCAGTCTTGGGTTCTAACCTGTTGCTT (site TACCAGTCTAA) | 1.74 |
| TACCAGTCTTGGGTTCTAACCTGTTGCTT (site TACCCGTCTAA) | 0.0102 |
| TACCAGTCTTGGGTTCTAACCTGTTGCTT (site TACCGGTCTAA) | 0.293 |
| TACCAGTCTTGGGTTCTAACCTGTTGCTT (site TACCTGTCTAA) | 0.111 |
| TACCCGCCTTGGGTTCTAACCTGTTGCTA (site TACCCGCCTTA) | 0.59 |
| TACCCGCCTTGGGTTCTAACCTGTTGCTA (site TACCCTACTTA) | 0.066 |
| TACCCGTCTTGGGTTCTAACCTGTTGCTT (site TACCAGTCTAA) | 0 |

| Sequence | recombinant barcode read abundance (log10) |
| --- | --- |
| TACCCGTCTTGGGTTCTAACCTGTTGCTT (site TACCCGTCTAA) | 0.399 |
| TACCCGTCTTGGGTTCTAACCTGTTGCTT (site TACCGGTCTAA) | 0.168 |
| TACCCGTCTTGGGTTCTAACCTGTTGCTT (site TACCTGTCTAA) | 0.0134 |
| TACCGGCCTTGGGTTCTAACCTGTTGCTT (site TACCGGACTAC) | 0.0691 |
| TACCGGCCTTGGGTTCTAACCTGTTGCTT (site TACCGGCCTAA) | 0.444 |
| TACCTACCTTGGGTTCTAACCTGTTGCGA (site ATAACTACTAA) | 0.0536 |
| TACCTACCTTGGGTTCTAACCTGTTGCGA (site TACCTACCTTC) | 1.92 |
| TACCTATCTTGGGTTCTAACCTGTTGCGT (site TACCTAGCTAC) | 0.0617 |
| TACCTATCTTGGGTTCTAACCTGTTGCGT (site TACCTATCTAC) | 1.83 |
| TACGAACCTTGGGTTCTAACCTGTTGCGT (site TACGAACCTAC) | 2.94 |
| TACGAACCTTGGGTTCTAACCTGTTGCGT (site TAGGAGCCTAC) | 0.335 |
| TACGCCTCTTGGGTTCTAACCTGTTGCTA (site TACGCCTCTTA) | 1.31 |
| TACGCCTCTTGGGTTCTAACCTGTTGCTA (site TGCGCCTCTCA) | 0.299 |
| TACGGGGCTTGGGTTCTAACCTGTTGCCT (site TACGAGGCTAG) | 0.166 |
| TACGGGGCTTGGGTTCTAACCTGTTGCCT (site TACGCGGCTAG) | 0.139 |
| TACGGGGCTTGGGTTCTAACCTGTTGCCT (site TACGGGGCTAG) | 0.572 |
| TACGGGGCTTGGGTTCTAACCTGTTGCCT (site TACGTGGCTAG) | 0.414 |
| TACGGGTCTTGGGTTCTAACCTGTTGCCT (site AAGGGGTCTAG) | 0.0993 |
| TACGGGTCTTGGGTTCTAACCTGTTGCCT (site TACGGGTCTAG) | 1.16 |
| TACTAAACTTGGGTTCTAACCTGTTGCCT (site TACTAAACTAG) | 0.267 |
| TACTAAACTTGGGTTCTAACCTGTTGCCT (site TACTCAACTAG) | 0.0276 |
| TACTAAACTTGGGTTCTAACCTGTTGCCT (site TACTGAACTAG) | 0.0606 |

| Sequence | recombinant barcode read abundance (log10) |
| --- | --- |
| TACTAAACTTGGGTTCTAACCTGTTGCCT (site TACTTAACTAG) | 0.00687 |
| TACTAAGCTTGGGTTCTAACCTGTTGCAT (site TACTAAGCTAA) | 0.149 |
| TACTAAGCTTGGGTTCTAACCTGTTGCAT (site TACTAAGCTAC) | 0.0997 |
| TACTAAGCTTGGGTTCTAACCTGTTGCAT (site TACTAAGCTAG) | 0.274 |
| TACTAAGCTTGGGTTCTAACCTGTTGCAT (site TACTAAGCTAT) | 0.523 |
| TACTAAGCTTGGGTTCTAACCTGTTGCGT (site TACTAAGCTAA) | 0.238 |
| TACTAAGCTTGGGTTCTAACCTGTTGCGT (site TACTAAGCTAC) | 1.1 |
| TACTAAGCTTGGGTTCTAACCTGTTGCGT (site TACTAAGCTAG) | 0.122 |
| TACTAAGCTTGGGTTCTAACCTGTTGCGT (site TACTAAGCTAT) | 0.149 |
| TACTCAACTTGGGTTCTAACCTGTTGCCT (site TACTAAACTAG) | 0.376 |
| TACTCAACTTGGGTTCTAACCTGTTGCCT (site TACTCAACTAG) | 0.0463 |
| TACTCAACTTGGGTTCTAACCTGTTGCCT (site TACTGAACTAG) | 0.0105 |
| TACTCAACTTGGGTTCTAACCTGTTGCCT (site TACTTAACTAG) | 0 |
| TACTCACCTTGGGTTCTAACCTGTTGCTT (site ACTGGTTCTCG) | 0.022 |
| TACTCACCTTGGGTTCTAACCTGTTGCTT (site TACTCACCTAA) | 0.287 |
| TACTGATCTTGGGTTCTAACCTGTTGCCT (site TAATGATCTAG) | 0.0666 |
| TACTGATCTTGGGTTCTAACCTGTTGCCT (site TACTGATCTAG) | 0.461 |
| TACTGATCTTGGGTTCTAACCTGTTGCCT (site TAGTGATCTAG) | 0.0404 |
| TACTGATCTTGGGTTCTAACCTGTTGCCT (site TATTGATCTAG) | 0.0711 |
| TACTTCGCTTGGGTTCTAACCTGTTGCCT (site CACATCGCTAG) | 0.042 |
| TACTTCGCTTGGGTTCTAACCTGTTGCCT (site TACTTCGCTAG) | 0.193 |
| TAGAAAGCTTGGGTTCTAACCTGTTGCCA (site TAGAAAGCTTG) | 0.633 |

| Sequence | recombinant barcode read abundance (log10) |
| --- | --- |
| TAGAAAGCTTGGGTTCTAACCTGTTGCCA (site TAGGAAGCTTC) | 0.139 |
| TAGAACACTTGGGTTCTAACCTGTTGCTC (site TAGAACACTAA) | 0.421 |
| TAGAACACTTGGGTTCTAACCTGTTGCTC (site TAGAACACTCA) | 0.151 |
| TAGAACACTTGGGTTCTAACCTGTTGCTC (site TAGAACACTGA) | 0.262 |
| TAGAACACTTGGGTTCTAACCTGTTGCTC (site TAGAACACTTA) | 0.0884 |
| TAGAACACTTGGGTTCTAACCTGTTGCTT (site TAGAACACTAA) | 0.16 |
| TAGAACACTTGGGTTCTAACCTGTTGCTT (site TAGAACACTCA) | 0.0447 |
| TAGAACACTTGGGTTCTAACCTGTTGCTT (site TAGAACACTGA) | 0.153 |
| TAGAACACTTGGGTTCTAACCTGTTGCTT (site TAGAACACTTA) | 0.169 |
| TAGAAGACTTGGGTTCTAACCTGTTGCAT (site TAGAAGACTAT) | 1.01 |
| TAGAAGACTTGGGTTCTAACCTGTTGCAT (site TATAAGACTGT) | 0.0979 |
| TAGAAGCCTTGGGTTCTAACCTGTTGCCT (site AAGAAGCCTAG) | 0.248 |
| TAGAAGCCTTGGGTTCTAACCTGTTGCCT (site CAGAAGCCTAG) | 0.43 |
| TAGAAGCCTTGGGTTCTAACCTGTTGCCT (site GAGAAGCCTAG) | 0.06 |
| TAGAAGCCTTGGGTTCTAACCTGTTGCCT (site TAGAAGCCTAG) | 1.11 |
| TAGAAGGCTTGGGTTCTAACCTGTTGCCT (site TAGAAGGCTAA) | 0.139 |
| TAGAAGGCTTGGGTTCTAACCTGTTGCCT (site TAGAAGGCTAC) | 0.1 |
| TAGAAGGCTTGGGTTCTAACCTGTTGCCT (site TAGAAGGCTAG) | 0.216 |
| TAGAAGGCTTGGGTTCTAACCTGTTGCCT (site TAGAAGGCTAT) | 0.325 |
| TAGAAGGCTTGGGTTCTAACCTGTTGCTT (site TAGAAGGCTAA) | 0.805 |
